Measured values reported in US20240174723A1, “STAPLED ANTIMICROBIAL PEPTIDES (STAMPS) AND USES THEREOF” (Lytica Therapeutics, Inc., priority 2021, published 2024).
Converted amounts (≈) assume the structure as drawn. Positions of bridges follow the written chain, without caps; N, C: chain ends. Non-standard residues stand in square brackets, D forms with d. Residues, ends and D or L forms follow the SMILES beside them. S5 = C=CCCC[C@](C)(N)C(=O)O; Dap = NC[C@H](N)C(=O)O

Legend:
[1] = system: E. coli; format: cell-based, Escherichia coli
Method in brief: (§1)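 Visible-growth endpoint after 20-24 h at 37 °C defines the MIC. Test organisms, pre-grown to log phase, were exposed at 5×10^5 CFU/ml to peptide dilution series in standard or cation-adjusted Mueller-Hinton broth.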

[2] = system: A. baumannii; format: cell-based, Acinetobacter baumannii
Method in brief: as §1

[3] = system: P. aeruginosa; format: cell-based, Pseudomonas aeruginosa
Method in brief: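 MIC taken as lowest peptide concentration with no visible growth after 20-24 h at 37 °C. Peptide serial dilutions from water stocks met P. aeruginosa inoculum (5×10^5 CFU/ml final) in MHB or MHB II, per a CLSI-adapted microbroth protocol.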

[4] = system: K. pneumoniae; format: cell-based, Klebsiella pneumoniae
Method in brief: as §1

[5] = system: S. aureus; format: cell-based, Staphylococcus aureus
Method in brief: as §1

[6] = in vitro; format: cell-based; details: human
Method in brief: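 LDH release (absorbance at 490 nm) measured in the media of cells treated with serially diluted StAMPs or vehicle at 37 °C: 90 min for renal RPTEC, 48 h for liver HepG2. Cells were seeded overnight beforehand and media refreshed before dosing.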

[7] = in vitro; format: cell-based; details: human, Inhibitory Concentration at 50% Cytotoxicity (IC50) Human Liver Cells (HepG2)
Method in brief: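 Cytotoxicity read by CellTiter-Glo luminescence after 48 h at 37 °C exposure to serially diluted StAMPs or vehicle. HepG2 cells were grown in EMEM plus 10% FBS and given 4 h to attach before dosing; peptides came from a 5 mg/mL aqueous stock.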

| Structure (SMILES) | Minimum Inhibitory Concentration (MIC) E. coli [1] | Minimum Inhibitory Concentration (MIC) A. baumannii [2] | Minimum Inhibitory Concentration (MIC) P. aeruginosa [3] | Minimum Inhibitory Concentration (MIC) K. pneumoniae [4] | Minimum Inhibitory Concentration (MIC) S. aureus [5] | IC50 at 90 min [6] | IC50 at 48 hours [7] |
| --- | --- | --- | --- | --- | --- | --- | --- |
| CC(C)[C@@H]1NC(=O)[C@@](C)(NC(=O)[C@H](C)NC(=O)[C@H](CCCCN)NC(=O)CNC(=O)[C@H](Cc2ccccc2)NC(=O)[C@H](CCCCN)NC(=O)[C@H](CCCCN)NC(=O)[C@H](CN)NC(=O)[C@H](CCCCN)NC(=O)[C@H](CCCCN)NC(=O)[C@]2(C)CCCC=CCCC[C@](C)(NC(=O)CN)C(=O)NCC(=O)N[C@@H](CCCCN)C(=O)N[C@@H](Cc3ccccc3)C(=O)N2)CCCC=CCCC[C@@](C)(C(=O)N[C@@H](C)C(=O)N[C@@H](CCCCN)C(=O)N[C@@H](CCCCN)C(N)=O)NC(=O)[C@H](CCC(=O)O)NC(=O)CNC1=O [compound 40] (H-G[S5]GKF[S5]KK[Dap]KKFGKA[S5]VGE[S5]AKK-NH2; staple 2-6, 16-20) | 2 µg/mL | 2 µg/mL | 4 µg/mL | 8 µg/mL | >64 µg/mL | 200 µg/mL (≈ 79.3 µM) | 203 µg/mL (≈ 80.5 µM) |
| CC(C)[C@@H]1NC(=O)[C@@](C)(NC(=O)[C@H](C)NC(=O)[C@H](CCCCN)NC(=O)CNC(=O)[C@H](Cc2ccccc2)NC(=O)[C@H](CCCCN)NC(=O)[C@H](CCCCN)NC(=O)[C@H](CCCCN)NC(=O)[C@H](CO)NC(=O)[C@H](Cc2c[nH]cn2)NC(=O)[C@]2(C)CCCC=CCCC[C@](C)(NC(=O)[C@@H](N)Cc3c[nH]c4ccccc34)C(=O)NCC(=O)N[C@@H](CCCCN)C(=O)N[C@@H](Cc3ccccc3)C(=O)N2)CCCC=CCCC[C@@](C)(C(=O)N[C@@H](C)C(=O)N[C@@H](CCCCN)C(=O)N[C@@H](CCCCN)C(N)=O)NC(=O)[C@H](CCC(=O)O)NC(=O)CNC1=O [compound 56] (H-W[S5]GKF[S5]HSKKKFGKA[S5]VGE[S5]AKK-NH2; staple 2-6, 16-20) | 8 µg/mL | 4 µg/mL | 16 µg/mL | >64 µg/mL | >64 µg/mL | 78 µg/mL (≈ 29.3 µM) | 200 µg/mL (≈ 75.2 µM) |
| CC(C)[C@@H]1NC(=O)[C@@](C)(NC(=O)[C@H](C)NC(=O)[C@H](CCCCN)NC(=O)CNC(=O)[C@H](Cc2ccccc2)NC(=O)[C@H](CCCCN)NC(=O)[C@H](CCCCN)NC(=O)[C@H](CCCCN)NC(=O)[C@H](CO)NC(=O)[C@H](Cc2c[nH]cn2)NC(=O)[C@]2(C)CCCC=CCCC[C@](C)(NC(=O)CN)C(=O)N[C@@H](Cc3c[nH]c4ccccc34)C(=O)N[C@@H](CCCCN)C(=O)N[C@@H](Cc3ccccc3)C(=O)N2)CCCC=CCCC[C@@](C)(C(=O)N[C@@H](C)C(=O)N[C@@H](CCCCN)C(=O)N[C@@H](CCCCN)C(N)=O)NC(=O)[C@H](CCC(=O)O)NC(=O)CNC1=O [compound 57] (H-G[S5]WKF[S5]HSKKKFGKA[S5]VGE[S5]AKK-NH2; staple 2-6, 16-20) | 4 µg/mL | 4 µg/mL | 8 µg/mL | 16 µg/mL | 32 µg/mL | 35 µg/mL (≈ 13.2 µM) | 70 µg/mL (≈ 26.3 µM) |
| CC(C)[C@@H]1NC(=O)[C@@](C)(NC(=O)[C@H](C)NC(=O)[C@H](CCCCN)NC(=O)CNC(=O)[C@H](Cc2ccccc2)NC(=O)[C@H](CCCCN)NC(=O)[C@H](CCCCN)NC(=O)[C@H](CCCCN)NC(=O)[C@H](CO)NC(=O)[C@H](Cc2c[nH]cn2)NC(=O)[C@]2(C)CCCC=CCCC[C@](C)(NC(=O)CN)C(=O)NCC(=O)N[C@@H](Cc3c[nH]c4ccccc34)C(=O)N[C@@H](Cc3ccccc3)C(=O)N2)CCCC=CCCC[C@@](C)(C(=O)N[C@@H](C)C(=O)N[C@@H](CCCCN)C(=O)N[C@@H](CCCCN)C(N)=O)NC(=O)[C@H](CCC(=O)O)NC(=O)CNC1=O [compound 58] (H-G[S5]GWF[S5]HSKKKFGKA[S5]VGE[S5]AKK-NH2; staple 2-6, 16-20) | 16 µg/mL | 8 µg/mL | 32 µg/mL | >64 µg/mL | >64 µg/mL | > 200 µg/mL | > 200 µg/mL |
| CC(C)[C@@H]1NC(=O)[C@@](C)(NC(=O)[C@H](C)NC(=O)[C@H](CCCCN)NC(=O)CNC(=O)[C@H](Cc2ccccc2)NC(=O)[C@H](CCCCN)NC(=O)[C@H](CCCCN)NC(=O)[C@H](CCCCN)NC(=O)[C@H](CO)NC(=O)[C@H](Cc2c[nH]cn2)NC(=O)[C@]2(C)CCCC=CCCC[C@](C)(NC(=O)CN)C(=O)NCC(=O)N[C@@H](CCCCN)C(=O)N[C@@H](Cc3c[nH]c4ccccc34)C(=O)N2)CCCC=CCCC[C@@](C)(C(=O)N[C@@H](C)C(=O)N[C@@H](CCCCN)C(=O)N[C@@H](CCCCN)C(N)=O)NC(=O)[C@H](CCC(=O)O)NC(=O)CNC1=O [compound 59] (H-G[S5]GKW[S5]HSKKKFGKA[S5]VGE[S5]AKK-NH2; staple 2-6, 16-20) | 4 µg/mL | 4 µg/mL | 8 µg/mL | 64 µg/mL | >64 µg/mL | > 200 µg/mL | > 200 µg/mL |
| CC(C)[C@@H]1NC(=O)[C@@](C)(NC(=O)[C@H](C)NC(=O)[C@H](CCCCN)NC(=O)CNC(=O)[C@H](Cc2ccccc2)NC(=O)[C@H](CCCCN)NC(=O)[C@H](CCCCN)NC(=O)[C@H](CCCCN)NC(=O)[C@H](CO)NC(=O)[C@H](Cc2c[nH]c3ccccc23)NC(=O)[C@]2(C)CCCC=CCCC[C@](C)(NC(=O)CN)C(=O)NCC(=O)N[C@@H](CCCCN)C(=O)N[C@@H](Cc3ccccc3)C(=O)N2)CCCC=CCCC[C@@](C)(C(=O)N[C@@H](C)C(=O)N[C@@H](CCCCN)C(=O)N[C@@H](CCCCN)C(N)=O)NC(=O)[C@H](CCC(=O)O)NC(=O)CNC1=O [compound 60] (H-G[S5]GKF[S5]WSKKKFGKA[S5]VGE[S5]AKK-NH2; staple 2-6, 16-20) | 4 µg/mL | 4 µg/mL | 8 µg/mL | 32 µg/mL | >64 µg/mL | 108 µg/mL (≈ 41.8 µM) | 56 µg/mL (≈ 21.7 µM) |
| CC(C)[C@@H]1NC(=O)[C@@](C)(NC(=O)[C@H](C)NC(=O)[C@H](CCCCN)NC(=O)CNC(=O)[C@H](Cc2ccccc2)NC(=O)[C@H](CCCCN)NC(=O)[C@H](CCCCN)NC(=O)[C@H](CCCCN)NC(=O)[C@H](Cc2c[nH]c3ccccc23)NC(=O)[C@H](Cc2c[nH]cn2)NC(=O)[C@]2(C)CCCC=CCCC[C@](C)(NC(=O)CN)C(=O)NCC(=O)N[C@@H](CCCCN)C(=O)N[C@@H](Cc3ccccc3)C(=O)N2)CCCC=CCCC[C@@](C)(C(=O)N[C@@H](C)C(=O)N[C@@H](CCCCN)C(=O)N[C@@H](CCCCN)C(N)=O)NC(=O)[C@H](CCC(=O)O)NC(=O)CNC1=O [compound 61] (H-G[S5]GKF[S5]HWKKKFGKA[S5]VGE[S5]AKK-NH2; staple 2-6, 16-20) | 8 µg/mL | 4 µg/mL | 8 µg/mL | 64 µg/mL | >64 µg/mL | 150 µg/mL (≈ 57 µM) | > 200 µg/mL |
| CC(C)[C@@H]1NC(=O)[C@@](C)(NC(=O)[C@H](C)NC(=O)[C@H](CCCCN)NC(=O)[C@H](Cc2c[nH]c3ccccc23)NC(=O)[C@H](Cc2c[nH]c3ccccc23)NC(=O)[C@H](CCCCN)NC(=O)[C@H](CCCCN)NC(=O)[C@H](CCCCN)NC(=O)[C@H](CO)NC(=O)[C@H](Cc2c[nH]cn2)NC(=O)[C@]2(C)CCCC=CCCC[C@](C)(NC(=O)CN)C(=O)NCC(=O)N[C@@H](CCCCN)C(=O)N[C@@H](Cc3ccccc3)C(=O)N2)CCCC=CCCC[C@@](C)(C(=O)N[C@@H](C)C(=O)N[C@@H](CCCCN)C(=O)N[C@@H](CCCCN)C(N)=O)NC(=O)[C@H](CCC(=O)O)NC(=O)CNC1=O [compound 62] (H-G[S5]GKF[S5]HSKKKWWKA[S5]VGE[S5]AKK-NH2; staple 2-6, 16-20) | 16 µg/mL | 4 µg/mL | 16 µg/mL | 8 µg/mL | >64 µg/mL | 30 µg/mL (≈ 11.1 µM) | 35 µg/mL (≈ 13 µM) |
